# Experimental data from ChEMBL document CHEMBL3046459, “Structural insights for 3H-1, -2, -4 triazolinones as angiotensin II receptor antagonists using QSAR techniques” (Med Chem Res, 2010).
# Target: T1, Type-1 angiotensin II receptor (Oryctolagus cuniculus, UniProt P34976)
# T1 sequence (P34976 whole entry): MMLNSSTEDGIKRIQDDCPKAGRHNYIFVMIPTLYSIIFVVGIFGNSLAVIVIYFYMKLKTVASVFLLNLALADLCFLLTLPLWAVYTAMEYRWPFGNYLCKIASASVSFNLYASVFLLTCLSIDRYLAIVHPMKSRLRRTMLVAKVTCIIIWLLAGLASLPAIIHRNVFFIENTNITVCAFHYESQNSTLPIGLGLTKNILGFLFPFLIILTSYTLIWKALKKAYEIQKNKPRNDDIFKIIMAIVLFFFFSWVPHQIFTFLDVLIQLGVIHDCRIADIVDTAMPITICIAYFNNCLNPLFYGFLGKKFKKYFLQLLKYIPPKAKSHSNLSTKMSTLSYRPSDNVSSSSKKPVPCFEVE
# Test: (§1) Antagonist activity at angiotensin 2 type-1 receptor in Oryctolagus cuniculus (rabbit) aorta in presence of bovine serum albumin
row,IC50,Compound
1,6 nM,CCCCc1nn(Cc2c(F)c(F)c(F)c(F)c2F)c(=O)n1Cc1ccc(-c2ccccc2-c2nn[nH]n2)cc1

# Target: T2, Type-1 angiotensin II receptor (Oryctolagus cuniculus) (UniProt P34976)
# T2 sequence (whole entry): T1 sequence (P34976 whole entry)
# Test: as §1
# Parameters: unit not given here
row,Compound,logIC50
1,CCCCc1nn(-c2ccccc2Br)c(=O)n1Cc1ccc(-c2ccccc2-c2nn[nH]n2)cc1,0.301
2,CCCCc1nnc(O)n1Cc1ccc(-c2ccccc2-c2nn[nH]n2)cc1,1.78
3,CCCCc1nn(-c2ccccc2C(=O)OC)c(=O)n1Cc1ccc(-c2ccccc2-c2nn[nH]n2)cc1,0.748
4,CCCCCc1nn(-c2ccccc2[N+](=O)[O-])c(=O)n1Cc1ccc(-c2ccccc2-c2nn[nH]n2)cc1,-0.0315
5,CCCCc1nn(-c2ccc(C)cc2)c(=O)n1Cc1ccc(-c2ccccc2-c2nn[nH]n2)cc1,1.2
6,CCCCc1nn(-c2c(F)c(F)c(F)c(F)c2F)c(=O)n1Cc1ccc(-c2ccccc2-c2nn[nH]n2)cc1,1.23
7,CCCCc1nn(C)c(=O)n1Cc1ccc(-c2ccccc2-c2nn[nH]n2)cc1,1.84
8,CCCCc1nn(-c2cccc(C)c2)c(=O)n1Cc1ccc(-c2ccccc2-c2nn[nH]n2)cc1,1.25
9,CCCCc1nn(C(C)CC)c(=O)n1Cc1ccc(-c2ccccc2-c2nn[nH]n2)cc1 (centres undefined),0.255
10,CCCCc1nn(C(C)C)c(=O)n1Cc1ccc(-c2ccccc2-c2nn[nH]n2)cc1,0.886
11,CCCCc1nn(Cc2c(F)c(F)c(F)c(F)c2F)c(=O)n1Cc1ccc(-c2ccccc2-c2nn[nH]n2)cc1,1.5
12,CCCCc1nn(-c2ccc(OC)cc2)c(=O)n1Cc1ccc(-c2ccccc2-c2nn[nH]n2)cc1,0.699
13,CCCCc1nn(CC(C)C)c(=O)n1Cc1ccc(-c2ccccc2-c2nn[nH]n2)cc1,0.505
14,CCCCc1nn(-c2ccccc2C(F)(F)F)c(=O)n1Cc1ccc(-c2ccccc2-c2nn[nH]n2)cc1,0.0792
15,CCCCCc1nn(-c2ccccc2Cl)c(=O)n1Cc1ccc(-c2ccccc2-c2nn[nH]n2)cc1,0.756
16,CCCCc1nn(-c2ccccc2F)c(=O)n1Cc1ccc(-c2ccccc2-c2nn[nH]n2)cc1,0.886
17,CCCCc1nn(Cc2ccccc2C(=O)OC)c(=O)n1Cc1ccc(-c2ccccc2-c2nn[nH]n2)cc1,1.04
18,CCCCc1nn(-c2cccc([N+](=O)[O-])c2)c(=O)n1Cc1ccc(-c2ccccc2-c2nn[nH]n2)cc1,1.63
19,CCCCc1nn(Cc2ccc(C(=O)OC)cc2)c(=O)n1Cc1ccc(-c2ccccc2-c2nn[nH]n2)cc1,1.36
20,CCCCc1nn(Cc2ccccc2C)c(=O)n1Cc1ccc(-c2ccccc2-c2nn[nH]n2)cc1,1.04
21,CCCCc1nn(C(C(=O)O)c2ccccc2)c(=O)n1Cc1ccc(-c2ccccc2-c2nn[nH]n2)cc1 (centres undefined),1.83
22,CCCCc1nn(-c2ccccc2-c2ccccc2)c(=O)n1Cc1ccc(-c2ccccc2-c2nn[nH]n2)cc1,0.556
23,CCCCc1nn(-c2ccc(C(=O)OC)cc2)c(=O)n1Cc1ccc(-c2ccccc2-c2nn[nH]n2)cc1,1.52
24,CCCCc1nn(-c2ccccc2OC)c(=O)n1Cc1ccc(-c2ccccc2-c2nn[nH]n2)cc1,0.82
25,CCCCc1nn(CC(=O)OC)c(=O)n1Cc1ccc(-c2ccccc2-c2nn[nH]n2)cc1,1.23
26,CCCCc1nn(-c2cccc(OC)c2)c(=O)n1Cc1ccc(-c2ccccc2-c2nn[nH]n2)cc1,1.18

# The next lines start with the values.
row,logIC50,Compound
1,2.08,CCCCc1nn(-c2cccc(Cl)c2)c(=O)n1Cc1ccc(-c2ccccc2-c2nn[nH]n2)cc1
2,0.663,CCCCc1nn(Cc2ccccc2)c(=O)n1Cc1ccc(-c2ccccc2-c2nn[nH]n2)cc1
3,-0.131,CCCCc1nn(-c2ccc(OC)cc2[N+](=O)[O-])c(=O)n1Cc1ccc(-c2ccccc2-c2nn[nH]n2)cc1
4,1,CCCCc1nn(CC)c(=O)n1Cc1ccc(-c2ccccc2-c2nn[nH]n2)cc1
5,0.146,CCCCc1nn(-c2ccccc2C(C)C)c(=O)n1Cc1ccc(-c2ccccc2-c2nn[nH]n2)cc1
6,1.15,CCCc1nn(-c2ccccc2Cl)c(=O)n1Cc1ccc(-c2ccccc2-c2nn[nH]n2)cc1
7,0.462,CCCCc1nn(CC2CCCCC2)c(=O)n1Cc1ccc(-c2ccccc2-c2nn[nH]n2)cc1
8,1.08,CCCCc1nn(Cc2cccc(C)c2)c(=O)n1Cc1ccc(-c2ccccc2-c2nn[nH]n2)cc1
9,0.914,CCCCc1nn(CCC)c(=O)n1Cc1ccc(-c2ccccc2-c2nn[nH]n2)cc1
10,2.06,CCCCc1nn(-c2ccccc2C(=O)O)c(=O)n1Cc1ccc(-c2ccccc2-c2nn[nH]n2)cc1
11,0.978,CCCc1nn(-c2ccccc2[N+](=O)[O-])c(=O)n1Cc1ccc(-c2ccccc2-c2nn[nH]n2)cc1
12,2.69,CCCCc1nn(Cc2ccccc2C(=O)O)c(=O)n1Cc1ccc(-c2ccccc2-c2nn[nH]n2)cc1
13,1.08,CCCCc1nn(C(C(=O)OC)c2ccccc2)c(=O)n1Cc1ccc(-c2ccccc2-c2nn[nH]n2)cc1 (centres undefined)
14,1.9,CCCCc1nn(-c2ccccn2)c(=O)n1Cc1ccc(-c2ccccc2-c2nn[nH]n2)cc1
15,1.9,CCCCc1nn(-c2ccc([N+](=O)[O-])cc2)c(=O)n1Cc1ccc(-c2ccccc2-c2nn[nH]n2)cc1
16,1.84,CCCCc1nn(-c2ccc(Cl)cc2)c(=O)n1Cc1ccc(-c2ccccc2-c2nn[nH]n2)cc1
17,0.763,CCCCc1nn(-c2c(Cl)cccc2Cl)c(=O)n1Cc1ccc(-c2ccccc2-c2nn[nH]n2)cc1
18,1.32,CCCCc1nn(-c2ccc(F)cc2)c(=O)n1Cc1ccc(-c2ccccc2-c2nn[nH]n2)cc1
19,0.462,CCCCc1nn(CCCC)c(=O)n1Cc1ccc(-c2ccccc2-c2nn[nH]n2)cc1
20,0.613,CCCCc1nn(-c2ccccc2C)c(=O)n1Cc1ccc(-c2ccccc2-c2nn[nH]n2)cc1
21,2,CCCCc1nn(-c2ccccc2N)c(=O)n1Cc1ccc(-c2ccccc2-c2nn[nH]n2)cc1
22,2.04,CCCCc1nn(Cc2cccc(C(=O)OC)c2)c(=O)n1Cc1ccc(-c2ccccc2-c2nn[nH]n2)cc1
23,0.505,CCCCc1nn(-c2ccccc2N(C)C)c(=O)n1Cc1ccc(-c2ccccc2-c2nn[nH]n2)cc1
24,0.38,CCCCc1nn(-c2ccccc2Cl)c(=O)n1Cc1ccc(-c2ccccc2-c2nn[nH]n2)cc1
25,1.43,CCCCc1nn(-c2ccc(CC)cc2)c(=O)n1Cc1ccc(-c2ccccc2-c2nn[nH]n2)cc1
26,0.69,CCCCc1nn(C(C)c2ccccc2)c(=O)n1Cc1ccc(-c2ccccc2-c2nn[nH]n2)cc1 (centres undefined)
27,1.04,CCCCc1nn(-c2ccccc2Cc2ccccc2)c(=O)n1Cc1ccc(-c2ccccc2-c2nn[nH]n2)cc1
